Data as given in paper PMC3088537, “Production, purification, sequencing and activity spectra of mutacins D-123.1 and F-59.1” (BMC Microbiology, 2011).
Marks after values point to notes of the source that are not given here. Bridge positions count the residues as written; N and C are the ends. Ends that are not written are not given here.

What was measured:
[1] = Hydrophobic chromatography elution (Sep-Pak t-C18, methanol steps) as measure of hydrophobicity; assay type: physicochemical; conditions: Sep-Pak t-C18 cartridge, water:methanol steps of 10% from 0 to 100% in 10 mM HCl; used as indication of hydrophobicity
Description: Purification of the two mutacins was achieved by two hydrophobic chromatography steps as previously described by replacing TFA with HCl (10 mM). Briefly, the active preparation was loaded on a Sep-Pak® Vac 35 cc (10 g) t-C18 Cartridge (Waters Corporation, Milford, MA, USA). Cartridges were first equilibrated with 500 mL of methanol followed by 500 mL of deionized distilled water. Antibacterial compounds were eluted with successive steps of 500 mL of water:methanol mixtures increasing the gradient of methanol by 10% from 0 to 100% in 10 mM HCl. This was carried out at a flow rate of 1 mL/min and UV detection at 214 nm. The final purification step was carried out by reverse phase chromatography (RP)-HPLC analysis (Beckman Gold Model, Coulter Canada Inc., Mississauga, ON, Canada) using an analytical C18 column (Luna 5 μ C18(2), 250 × 4.6 mm, 4 × 3.0 mm, Phenomenex, Torrance, CA, USA). Elution was carried out with solvent A (5% acetonitrile, 10 mM HCl) and solvent B (60% acetonitrile, 10 mM HCl) and recorded at 214 nm. The following program of elution was developed: 0 to 3 min, constant 100% A; 3 to 15 min, a linear gradient from 100% A to 100% B; 15 to 20 min, constant 100% B; 20 to 23 min, a linear gradient from 100% B to 100% A. A flow rate of 1 mL/min was used. […] Protein concentration in active fractions was determined using the BioRad DC protein assay (BioRad, Mississauga, ON, Canada).

S. aureus ATCC 43300 = experiment: Inhibitory spectrum, critical dilution with spot test; assay type: cell-based, Staphylococcus aureus; conditions: purified mutacin, 5 μL spotted on soft agar lawn on TSAYE; reciprocal of highest dilution showing inhibition zone
Description: (§1) Streptococcus mutans 59.1 and 123.1 produce mutacins F-59.1 and D-123.1 respectively. Micrococcus luteus ATCC 272 (ATCC, Manassas, VA, USA) was used as the indicator strain for the mutacin activity assays. All bacteria were routinely grown aerobically at 37°C in TSBYE made of TSB (Difco laboratories, Detroit, MI, USA) supplemented with 0.3% yeast extract (Becton Dickinson & Co., Cockeysville, MD, USA) or on TSAYE plates made of TSA (Difco) enriched with 0.3% yeast extract. Lactobacillus salivarius strain (provided by Sylvain Moineau, Université Laval, Québec, QC, Canada) was cultivated aerobically at 30°C in MRS medium (Oxoid, Nepean, ON, Canada). Other bacterial strains used for the inhibitory spectra determination are described in Mota-Meira et al. and Morency et al.. Staphylococcus carnosus was obtained from the strain collection of the Department of Microbiology, Biochemistry and Bioinformatics (Université Laval).
(§2) Mutacin activity was determined by the spot test using Micrococcus luteus ATCC 272 as sensitive strain where two-fold dilutions were prepared in acidified (pH 2) peptone water (0.5%). Antibacterial activity spectra of purified mutacins was tested against a panel of bacterial strains using the critical dilution method combined with the spot test method as described previously. Briefly, overnight cultures of test strains in TSBYE were diluted in fresh broth before inoculating 5 mL of soft agar (0.75%) in order to obtain confluent lawns of growth on TSAYE plates. Five μL of purified mutacins, diluted in acidified (10 mM HCl) distilled water to promote solubility of the peptides, were deposited on the lawn and allowed to dry before appropriate incubation. Mutacin activity was expressed in AU/mL and corresponds to the reciprocal of the highest dilution showing a noticeable inhibition zone on the lawn.

S. aureus R621 = experiment: as above; assay type: cell-based, Staphylococcus aureus; conditions: purified mutacin, 5 μL spotted on soft agar lawn on TSAYE; reciprocal of highest dilution showing inhibition zone
Description: as §1, §2

S. aureus ATCC 25923 = experiment: as above; assay type: cell-based, Staphylococcus aureus; conditions: purified mutacin, 5 μL spotted on soft agar lawn on TSAYE; reciprocal of highest dilution showing inhibition zone
Description: as §1, §2

[2] = tested on: Micrococcus luteus ATCC 272; experiment: Inhibitory effect of mutacin F-59.1 on viable count (time-kill); assay type: cell-based
Description: One milliliter of active preparation (1600 AU/mL) adjusted to pH 7.0 was filter sterilised then added to 10 mL of an early-log-phase culture of Micrococcus luteus ATCC 272 grown in TSBYE. Bacterial culture in TSBYE was used as a negative control. The viable count in CFU/mL was determined at intervals for up to 24 h for samples and control during incubation at 37°C by plating 100 μL of an appropriate dilution in peptone water (0.1%) on TSAYE incubated at 37°C at least 24 h.

L. murrayi HPB 30 = experiment: Inhibitory spectrum, critical dilution with spot test; assay type: cell-based, Listeria murrayi; conditions: purified mutacin, 5 μL spotted on soft agar lawn on TSAYE; reciprocal of highest dilution showing inhibition zone
Description: as §1
Mutacin activity was determined by the spot test using Micrococcus luteus ATCC 272 as sensitive strain where two-fold dilutions were prepared in acidified (pH 2) peptone water (0.5%). Antibacterial activity spectra of purified mutacins was tested against a panel of bacterial strains using the critical dilution method combined with the spot test method as described previously. […]

[3] = tested on: L. monocytogenes ATCC 700301 ScottA; experiment: as above; assay type: cell-based, Listeria monocytogenes; conditions: purified mutacin, 5 μL spotted on soft agar lawn on TSAYE; reciprocal of highest dilution showing inhibition zone
Description: as §1, §2

[4] = tested on: L. monocytogenes FRDC 88571; experiment: as above; assay type: cell-based, Listeria monocytogenes; conditions: purified mutacin, 5 μL spotted on soft agar lawn on TSAYE; reciprocal of highest dilution showing inhibition zone
Description: as §1, §2

[5] = tested on: L. monocytogenes ATCC 700302 ScottA; experiment: as above; assay type: cell-based, Listeria monocytogenes; conditions: purified mutacin, 5 μL spotted on soft agar lawn on TSAYE; reciprocal of highest dilution showing inhibition zone
Description: as §1, §2

[6] = tested on: L. monocytogenes FRDC 1039; experiment: as above; assay type: cell-based, Listeria monocytogenes; conditions: purified mutacin, 5 μL spotted on soft agar lawn on TSAYE; reciprocal of highest dilution showing inhibition zone
Description: as §1, §2

[7] = tested on: Micrococcus luteus ATCC 272; experiment: Mutacin activity assay (spot test) of preparations during production and purification; assay type: cell-based
Description: as §1
Purification of the two mutacins was achieved by two hydrophobic chromatography steps as previously described by replacing TFA with HCl (10 mM). Briefly, the active preparation was loaded on a Sep-Pak® Vac 35 cc (10 g) t-C18 Cartridge (Waters Corporation, Milford, MA, USA). Cartridges were first equilibrated with 500 mL of methanol followed by 500 mL of deionized distilled water. Antibacterial compounds were eluted with successive steps of 500 mL of water:methanol mixtures increasing the gradient of methanol by 10% from 0 to 100% in 10 mM HCl. This was carried out at a flow rate of 1 mL/min and UV detection at 214 nm. The final purification step was carried out by reverse phase chromatography (RP)-HPLC analysis (Beckman Gold Model, Coulter Canada Inc., Mississauga, ON, Canada) using an analytical C18 column (Luna 5 μ C18(2), 250 × 4.6 mm, 4 × 3.0 mm, Phenomenex, Torrance, CA, USA). Elution was carried out with solvent A (5% acetonitrile, 10 mM HCl) and solvent B (60% acetonitrile, 10 mM HCl) and recorded at 214 nm. The following program of elution was developed: 0 to 3 min, constant 100% A; 3 to 15 min, a linear gradient from 100% A to 100% B; 15 to 20 min, constant 100% B; 20 to 23 min, a linear gradient from 100% B to 100% A. A flow rate of 1 mL/min was used. The column was maintained at 39°C with a column heater. Active fractions were manually collected, subsequently dried in a Speed-Vac® concentrator (Model SC110A, Savant Instrument Inc. Farmingdale, NY, USA) and then kept at -20°C until processing. Protein concentration in active fractions was determined using the BioRad DC protein assay (BioRad, Mississauga, ON, Canada).
as §2

[8] = tested on: Listeria monocytogenes ATCC 15313; experiment: Inhibitory spectrum, critical dilution with spot test; assay type: cell-based; conditions: purified mutacin, 5 μL spotted on soft agar lawn on TSAYE; reciprocal of highest dilution showing inhibition zone
Description: as §1, §2

In the case of “KYYGNGVTCGKHSCSVDWSKATTNI (disulfide 9-14 (inferred)) [mutacin F-59.1, pediocin-like (class IIa) bacteriocin of 25 amino acids produced by Streptococcus mutans 59.1; UniProt P86386]”, the “Elution gradient at which active fractions were recovered (methanol in 10 mM HCl)” value [1] is reported as 50%-60%, the “Activity of mutacin against S. aureus ATCC 43300” value (S. aureus ATCC 43300) is reported as 0 AU/mL and the “Activity of mutacin against S. aureus R621” value (S. aureus R621) is reported as 0 AU/mL. The “Activity of mutacin against S. aureus ATCC 25923” value (S. aureus ATCC 25923) was 0 AU/mL, the “Viable count of M. luteus ATCC 272 after addition of purified mutacin” value ([2]; 160 AU/mL (1 mL of 1600 AU/mL, pH 7.0, added to 10 mL early-log culture in TSBYE), 37°C, followed up to 24 h, CFU/mL by plating) was “dropped to zero” and the “Mode of action (bactericidal or not)” value ([2]; 160 AU/mL, M. luteus ATCC 272, 24 h incubation) was “bactericidal”. For the same sequence, the “Activity of mutacin against L. murrayi HPB 30” value (L. murrayi HPB 30) was 200^b AU/mL, the “Activity of mutacin against L. monocytogenes ATCC 700301 ScottA” value [3] was 200^b AU/mL and the “Activity of mutacin against L. monocytogenes FRDC 88571” value [4] was 200^b AU/mL. For the same sequence, the “Activity of mutacin against L. monocytogenes ATCC 700302 ScottA” value [5] was 200^b AU/mL, the “Activity of mutacin against L. monocytogenes FRDC 1039” value [6] was 200^b AU/mL and the Activity ([7]; step: C18 RP-HPLC (purified), spot test on M. luteus ATCC 272, two-fold dilutions) was 16000 AU/mL. The “Specific activity (final, purified mutacin)” value ([7]; step: C18 RP-HPLC, per mg total protein (BioRad DC assay)) was 3.2 × 10^5 AU/mg, the Specific activity ([7]; step: Sep-Pak C18, per mg total protein (BioRad DC assay)) was 101 AU/mg and the Activity ([7]; step: Sep-Pak C18, spot test on M. luteus ATCC 272, two-fold dilutions) was 3200 AU/mL. The Activity ([7]; step: culture supernatant (crude preparation), spot test on M. luteus ATCC 272, two-fold dilutions in acidified (pH 2) peptone water) was 400 AU/mL, the Specific activity ([7]; step: culture supernatant, per mg total protein (BioRad DC assay)) was 40 AU/mg and the “Activity of mutacin against Listeria monocytogenes ATCC 15313” value [8] was 200^b AU/mL.
